This is an account of results in patent US20240050403A1, “THERAPY OF POST-OPERATIVE EMESIS WITH AMISULPRIDE” (Acacia Pharma Limited, priority 2016, published 2024).

Structures are written as SMILES. Values joined by “and” are separate entries in the source; they are usually repeats but may differ in a detail not shown here. Identical values can stand only once.

What all share (type): in vivo, human
In data set [1] the test system is adult surgical patients. As to the kind of experiment: Phase II clinical trial, multi-centre, double-blind, randomised, placebo-controlled, PONV incidence. As to the method:
In a multi-centre, double-blind, randomised, placebo-controlled Phase II clinical trial in adult surgical patients (conducted by the applicant), administration of amisulpride at 5 mg was associated with a PONV incidence of 40%, compared to 69% with placebo (p<0.01).

Data set [2] deals with adult surgical patients. As to the kind of experiment: Two Phase III clinical trials, multi-centre, double-blind, randomised, placebo-controlled, PONV incidence. The protocol:
In two multi-centre, double-blind, randomised, placebo-controlled Phase III clinical trials involving 626 evaluable, adult surgical patients (again conducted by the applicant), administration of amisulpride at 5 mg was associated with a PONV incidence of 48%, compared to 59% with placebo (p<0.01).

Data set [3] has as its system adult, surgical patients at high risk of PONV. The data set is described as follows: Study 1: Phase III study of amisulpride as combination prophylaxis against PONV in high-risk patients. The protocol:
A randomised, double-blind, placebo-controlled Phase Ill study of amisulpride as combination prophylaxis against post-operative nausea and vomiting in high-risk patients was conducted. The primary aim of the study was to assess the efficacy of amisulpride at 5 mg in the prevention of post-operative nausea and vomiting (PONV) in adult, surgical patients at high risk of PONV. The amisulpride was administered in combination with a standard anti-emetic.
The subjects of the study were 1204 randomised adult patients ([…]) at high risk of PONV who were undergoing elective ambulatory (day-case) or in-patient surgery under general inhalational anaesthesia for an expected duration of at least one hour from induction of anaesthesia to extubation. Of the 1204 randomised patients, 1147 were dosed and eligible.
High risk of PONV was defined as having at least three of the following risk factors: • Past history of PONV and/or motion sickness • Habitual non-smoking status • Female • Expected use of post-operative opioid analgesia
5 mg amisulpride was administered as a single, slow, intravenous (IV) push over one minute at the time of induction of anaesthesia; given in combination with a standard anti-emetic. Examples of standard anti-emetics used were ondansetron, granisetron and dexamethasone.
The two arms of the study were as follows: • Arm 1: amisulpride IV at 5 mg in combination with a standard anti-emetic which is not a dopamine D2-antagonist (e.g. ondansetron IV at 4 mg, granisetron IV at 1 mg, or dexamethasone IV at 4 mg); • Arm 2 (control): amisulpride IV placebo in combination with a standard anti-emetic, as defined above • The primary efficacy variable was the absence or presence of PONV during the 24-hour post-operative period, where PONV was defined as the occurrence of one or more emetic episodes (vomiting and/or retching) or the receipt of one or more doses of rescue anti-emetic medication. Absence of PONV by this definition was termed “Complete Response” (CR). A number of secondary variables were evaluated including the occurrence of emesis (vomiting and/or retching).
A comparison of the incidence of CR in the 0-24-hour period after surgery between the amisulpride group and the placebo group using Pearson's x2 test with Yates's continuity correction at a one-sided significance level of 2.5%. The primary efficacy analysis population was the modified intent-to-treat (mITT) population.
Secondary efficacy variables assessed by incidence (e.g., emesis) were compared between the groups using Pearson's x2 test.

For `CCN1CCCC1CNC(=O)c1cc(S(=O)(=O)CC)c(N)cc1OC` (racemic) [Amisulpride, amisulpride], the PONV incidence in the data set on adult surgical patients [1] (amisulpride at 5 mg, placebo 69% (p<0.01)) was determined as 40%; in the data set with adult surgical patients [2] (amisulpride at 5 mg, 626 evaluable patients, placebo 59% (p<0.01)) it was 48%. The “adverse events, laboratory or ECG abnormalities versus placebo” value with adult surgical patients [1] (amisulpride versus placebo) is “no difference in the nature, incidence or severity of adverse events, or of laboratory or ECG abnormalities”. Also, in the data set with adult surgical patients [2] (amisulpride versus placebo), the “safety profile versus placebo” value is reported as “no significant difference between the safety profiles”. The “transient increases in serum prolactin levels” value with adult surgical patients [2] (amisulpride versus placebo) is “more common with amisulpride”. Further, the “Calculated RRR (relative risk reduction) of post-operative emesis” value is given as 30.94% in data set [3] (5 mg IV plus a standard anti-emetic versus placebo plus standard anti-emetic) and 31% in data set [3] (5 mg IV plus a standard anti-emetic versus placebo plus standard anti-emetic, listed as amisulpride). Moreover, in data set [3] (5 mg IV plus a standard anti-emetic versus placebo plus standard anti-emetic, 24 hour period), the “Calculated RRR (relative risk reduction) of PONV” value is 20.8% and 20.76%. In addition, in data set [3] (5 mg IV plus a standard anti-emetic, 24 hour period, mITT, p<0.001), the “Difference in PONV rate (improvement in CR rate) versus placebo plus standard anti-emetic” value was found to be 11.08%. Moreover, the “Number of patients with PONV” value in data set [3] (5 mg IV plus a standard anti-emetic, 24 hour period, of 572 patients) is on record as 242. For the same molecule, the “Number of patients with CR (complete response)” value in data set [3] (5 mg IV plus a standard anti-emetic, 24 hour period, of 572 patients (mITT)) turned out to be 330. Besides, the “% patients with PONV” value in data set [3] (5 mg IV plus a standard anti-emetic, 24 hour period, placebo plus standard anti-emetic 53.39) came out at 42.31%. Also, in data set [3] (5 mg IV plus a standard anti-emetic, of 572 patients), the “Number of patients with post-operative emesis (vomiting and/or retching)” value came out at 79. In data set [3] (5 mg IV plus a standard anti-emetic, p=0.003), the “Difference in post-operative emesis rate versus placebo plus standard anti-emetic” value was found to be 6.19%. For the same molecule, the “% patients with post-operative emesis (vomiting and/or retching)” value in data set [3] (5 mg IV plus a standard anti-emetic, placebo plus standard anti-emetic 20.00) is 13.81%.
